Laboratory results from patent publication US20040009602A1, “DNA modifying molecules and methods of use thereof” (The Government of the U.S.A. as represented by the …, priority 2002, published 2004).

Tested on: HPRT gene
Experiment: Hprt mutation assay in synchronized CHO cells
Format: cell-based, Chinese Hamster
Experimental: Synchronization protocol: Chinese Hamster Ovary (CHO) AA8 cells (ATCC) were prepared as described above for the HPRT knockout assay. The cells were synchronized in G0/G1 by a variation of the method described by Sawai et al. (96). Briefly, cells were plated at subconfluent levels and the next day the medium changed to DMEM with 2% FBS and 2% DMSO. After 48 h the cells were washed (˜85% G0/G1 cells by FACS analysis) and either electroporated or fed with complete medium (for G1 phase experiments), or incubated with complete medium containing 100 μM mimosine for 16 hrs to block them in early S phase (˜90% early S cells). See Orren et al. for complete details on this procedure (49). After 16 hrs the cells were released from the mimosine block by feeding with DMEM/10% FBS. TFO electroporation, Psoralen treatment, and Hprt mutation assay: Cells were suspended at 10^7/mL and mixed with TFO at 5 μM. The cells were electroporated (BioRad), followed by incubation at room temperature for 3 hrs, and a 3 min exposure in a Rayonet chamber to UVA light at 1.8 J/cm^2. […] Cells treated with free psoralen were incubated with 5 μM psoralen for 30 min, followed by UVA treatment. The cells were passaged and then exposed to thioguanine (TG) selection (43).

## O=c1ccc2cc3ccoc3cc2o1 [psoralen]
5 μM free psoralen 30 min, UVA, different phases of cell cycle, background 0.001%
  frequency of thioguanine resistant colonies: 0.004-0.005%
Free psoralen/UVA
  cell cycle variability of mutation frequency: essentially unchanged across the cell cycle
